pIC50, pKi: −log10 of the molar value.
Assays:
[1] = molecular target: T1, H3R (Homo sapiens, UniProt Q9Y5N1); assay: H3R competitive radioligand binding assay using [^3H]AZ13582963; details: competitive binding vs [^3H]AZ13582963; for pKi: read-out: H3R K i
T1 construct: Gifford Bioscience (contract laboratory that ran the assay)

[2] = Log D by shake-flask method; assay type: physicochemical; details: n-octanol/PBS
Procedure: To evaluate the binding affinities of compounds 1–9, competitive radioligand binding assays were conducted using [^3H]-AZ13582963 [4-(1S,2S)-2-(4-cyclobutylpiperazine-1-carbonyl)-cyclopropyl)-N-methyl-[2-^3 H]-benzamide]. […]. […]. Further, ACD Percepta predictions indicated these compounds are likely to cross the blood-brain barrier (BBB), as indicated by a log BB > −1 and a multiparameter optimization (MPO) score >4.0. High selectivity toward H3R over other CNS targets is essential for effective H3R PET imaging. Therefore, off-target screenings of compounds 2, 3, and 4 were conducted against various CNS receptors, G protein-coupled receptors (GPCRs), transporters, and ion channels at 10 μM (Figure S1). […]. Sigma-1 receptors, crucial for ion channel function and associated with learning, memory, and pain, , have shown synergy with H3R antagonists, including PF-03654746 and ABT-239, potentially enhancing in vivo efficacy.
The lipophilicity was measured according to previously reported methods. , In brief, PBS and n-octanol were premixed prior to the experiment. A solution containing 0.2 MBq of [^18F]3 or [^18F]4, PBS (3 mL) and n-octanol (3 mL) were prepared in a vial and vortexed for 5 min. The PBS and n-octanol layers were then separated and transferred into a centrifuge tube, followed centrifugation at 12,000 rpm for 5 min. Then PBS (0.5 mL) and n-octanol (0.05 mL) were weight and measured the radioactivity on a γ counter (PerkinElmer Wizard). The Log D values of [ ^18F]3 and [^18F]4 were calculated using the following formula: LogD=Log[(radioactivityn‐octanol/weightn‐octanol)/(radioactivityPBS/weightPBS)]

[3] = molecular target: T2, sigma-1 receptor (Homo sapiens, UniProt Q99720); assay: Off-target screening at 10 μM, sigma-1; assay type: binding
[4] = molecular target: T2, sigma-1 receptor; assay: sigma 1 binding assay; details: for pKi: read-out: sigma-1 K i; for selectivity of H3R over sigma-1: ratio of sigma-1 K i to H3R K i
[5] = molecular target: 5-hydroxytryptamine receptor 2A (5-HT2A) (Homo sapiens, UniProt P28223); assay: Off-target screening at 10 μM, 5-HT2A; assay type: binding; details: read-out: inhibition of 5-HT2A
[6] = tested on: CNS receptors, GPCRs, transporters, and ion channels; assay: Off-target screening panel, CNS target selectivity; assay type: binding; details: H3R against most CNS targets
[7] = molecular target: T3, 5-HT2C (Homo sapiens, UniProt P28335); assay: 5HT2C binding assay; details: read-out: 5-HT2C K i
T3 sequence (P28335 33-458): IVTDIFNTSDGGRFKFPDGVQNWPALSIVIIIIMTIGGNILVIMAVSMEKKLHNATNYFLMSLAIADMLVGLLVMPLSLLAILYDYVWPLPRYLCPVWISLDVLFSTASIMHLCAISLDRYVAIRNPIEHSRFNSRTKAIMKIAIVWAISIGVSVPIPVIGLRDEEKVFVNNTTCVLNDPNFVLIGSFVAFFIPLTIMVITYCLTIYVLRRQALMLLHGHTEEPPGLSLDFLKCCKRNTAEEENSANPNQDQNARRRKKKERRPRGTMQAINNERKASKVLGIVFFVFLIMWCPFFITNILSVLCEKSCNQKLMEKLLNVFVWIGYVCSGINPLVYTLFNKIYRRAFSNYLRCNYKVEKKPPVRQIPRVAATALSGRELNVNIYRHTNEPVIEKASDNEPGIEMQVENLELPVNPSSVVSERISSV

[8] = molecular target: sigma-2 (Homo sapiens, UniProt Q5BJF2); assay: Off-target screening at 10 μM, sigma-2; assay type: binding
[9] = molecular target: T3, 5-HT2C; assay: Off-target screening at 10 μM, 5-HT2C; assay type: binding; details: read-out: inhibition of 5-HT2C
[10] = molecular target: T4, H3R (Rattus norvegicus, UniProt Q9QYN8); assay: In vitro autoradiography on rat brain sections; assay type: binding, SD rat
T4 construct: The brains of SD rat were sectioned into 15 μm slices; from tissue; host or cells: SD rat brain sections
Procedure: To validate the target specificity and selectivity, in vitro autoradiography experiments were conducted using [^18F]3 and [^18F]4 on rat brain sections. […] Furthermore, pretreatment with unlabeled compound 3 (10 μM) led to a signal reduction of over 90% in the brain. […] This discrepancy is likely attributable to additional off-target binding of [^18F]3, which is further supported by high uptake in the cerebellum – a region with low H3R expression. […] The high uptake in the cerebellum may be attributed to nonspecific binding to unidentified CNS targets. […] Nonetheless, the results support further in vivo PET evaluation to better understand their binding profiles and evaluate their potential for H3R imaging – particularly in regions with low sigma-1 abundance.
The ARG was measured according to previously reported methods. , The brains of SD rat were sectioned into 15 μm slices and stored in −80 °C. For each experiment, the brain slices allowed them to warm to room temperature and then incubated in Tris-HCl buffer (50 mM, containing 0.1% bovine serum albumin) for 10 min. The slices were incubated with [^18F]3 or [^18F]4 (0.037 MBq/mL) in the presence of either DMSO (baseline study), GSK189254 (10 μM, blocking study), and unlabeled 3 or 4 (10 μM, blocking study) at room temperature for 30 min. Following incubation, the brain slices were washed three times with cold Tris-HCl buffer (50 mM) for 5 min each, and then dipped in water 2 times for 5 s. The brain slices were dried under cold air and exposed to a Phosphor Screen (BAS IP MS2025, Cytiva) for 2 h. The radioactivity and imaging were captured using an Amersham Typhoon 5 (Cytiva) and the data were analyzed using ImageJ software.

[11] = molecular target: T5, H3R (Mus musculus, UniProt P58406); assay: Dynamic PET imaging in CD1 mice, baseline and H3R antagonist blocking; assay type: in vivo
T5 construct: dynamic PET imaging studies were conducted in CD1 mice; from tissue; host or cells: brain of living CD1 mice
Procedure: To elucidate the in vivo brain uptake of [^18F]3 and [^18F]4, dynamic PET imaging studies were conducted in CD1 mice (an outbred strain of immunocompetent mice commonly used for pharmacokinetic and biodistribution studies) for 60 min. The results, which include summed PET images (0–60 min), whole-brain time-activity curves (TACs), and area under the curve (AUC) for both radioligands, are depicted in Figures and . At baseline, [^18F]3 rapidly crossed the BBB following intravenous injection, reaching peak whole-brain uptake with a standardized uptake value (SUV) value of 2.4 at 2.3 min. This was followed by a gradual washout and reached a SUV of 1.87 by 60 min. To evaluate the binding characteristics of [^18F]3, elective H3R antagonists with distinct structural scaffolds, GSK189254, enerisant, and cipralisant, were used as blocking agents. […] Quantification of specific tracer binding was performed using volume of distribution (V T) values, derived from compartmental modeling and an image-derived input function (IDIF). […] While these findings support the utility of [^18F]3 for in vivo studies, we acknowledge the inherent limitations of IDIF, including the lack of metabolite correction and potential inaccuracies in capturing early phase kinetics.
PET imaging was conducted following previously reported methods. CD1 mice (5–6 weeks) were anesthetized with 1.5% (v/v) isoflurane during the scan. A dose of 3.0 MBq of [^18F]3 or [^18F]4 was intravenously injected into the tail vein, and a dynamic scan was acquiring using a PET scanner (MOLECUBES, beta-cube) for 60 min. In the blocking studies, GSK189254 (3 mg/kg) in 0.1 mL of saline containing 5% ethanol and 5% Tween-80 was preinjected for 10 min prior to the injection of PET radioligands. The results were reconstructed and analyzed by PMOD 4.3 software.
Quantification of specific tracer binding was performed using volume of distribution (VT) values, derived from compartmental modeling and an image-derived input […]
significant reduction in H3R-rich brain regions such as the cortex and striatum under blocking conditions with GSK189254, enerisant, and cipralisant, confirming the specificity of [18F]3 binding (Table S1).
Table S1. Estimation of V T values by Logan analysis in mice with [ 18F]3 at baseline, GSK189254-blocking (3 mg/kg), enerisant-blocking (3 mg/kg), and cipralisant-blocking (3 mg/kg) conditions.
Group Baseline GSK189254 Enerisant Cipralisant blocking blocking blocking

T2 sequence (Q99720 whole entry, species assumed): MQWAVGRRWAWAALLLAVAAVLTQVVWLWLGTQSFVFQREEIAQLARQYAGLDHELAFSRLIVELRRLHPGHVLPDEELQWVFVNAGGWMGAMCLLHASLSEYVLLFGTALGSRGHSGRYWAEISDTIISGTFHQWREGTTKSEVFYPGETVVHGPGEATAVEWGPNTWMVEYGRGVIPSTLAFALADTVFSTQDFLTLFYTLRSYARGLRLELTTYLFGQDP
T1 sequence (Q9Y5N1 whole entry, species assumed): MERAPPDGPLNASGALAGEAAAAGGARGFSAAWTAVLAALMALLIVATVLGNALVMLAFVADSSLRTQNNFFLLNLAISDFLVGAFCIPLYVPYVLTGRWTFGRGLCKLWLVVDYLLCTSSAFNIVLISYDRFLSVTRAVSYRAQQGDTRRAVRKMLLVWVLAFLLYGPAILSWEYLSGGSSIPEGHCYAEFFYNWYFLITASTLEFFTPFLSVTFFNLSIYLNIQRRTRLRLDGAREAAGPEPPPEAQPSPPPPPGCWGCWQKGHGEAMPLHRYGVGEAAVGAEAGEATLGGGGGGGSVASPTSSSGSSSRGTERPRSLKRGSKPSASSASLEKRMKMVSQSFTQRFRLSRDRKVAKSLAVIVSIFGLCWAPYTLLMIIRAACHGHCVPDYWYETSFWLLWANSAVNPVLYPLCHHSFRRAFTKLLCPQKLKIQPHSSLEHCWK
T5 sequence (P58406 whole entry): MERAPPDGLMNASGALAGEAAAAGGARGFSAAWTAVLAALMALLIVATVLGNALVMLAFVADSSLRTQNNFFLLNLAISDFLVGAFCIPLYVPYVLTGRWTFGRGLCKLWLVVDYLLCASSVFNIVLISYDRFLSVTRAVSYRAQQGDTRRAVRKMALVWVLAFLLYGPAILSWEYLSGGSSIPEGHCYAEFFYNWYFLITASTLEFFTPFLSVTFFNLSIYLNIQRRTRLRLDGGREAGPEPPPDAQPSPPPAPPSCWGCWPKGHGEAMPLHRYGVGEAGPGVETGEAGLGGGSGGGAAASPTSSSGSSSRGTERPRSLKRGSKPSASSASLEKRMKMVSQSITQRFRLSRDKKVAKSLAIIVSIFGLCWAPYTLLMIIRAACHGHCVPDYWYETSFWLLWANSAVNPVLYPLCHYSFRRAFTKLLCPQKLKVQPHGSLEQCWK
Chain of 5-hydroxytryptamine receptor 2A (5-HT2A) (P28223 whole entry, species assumed): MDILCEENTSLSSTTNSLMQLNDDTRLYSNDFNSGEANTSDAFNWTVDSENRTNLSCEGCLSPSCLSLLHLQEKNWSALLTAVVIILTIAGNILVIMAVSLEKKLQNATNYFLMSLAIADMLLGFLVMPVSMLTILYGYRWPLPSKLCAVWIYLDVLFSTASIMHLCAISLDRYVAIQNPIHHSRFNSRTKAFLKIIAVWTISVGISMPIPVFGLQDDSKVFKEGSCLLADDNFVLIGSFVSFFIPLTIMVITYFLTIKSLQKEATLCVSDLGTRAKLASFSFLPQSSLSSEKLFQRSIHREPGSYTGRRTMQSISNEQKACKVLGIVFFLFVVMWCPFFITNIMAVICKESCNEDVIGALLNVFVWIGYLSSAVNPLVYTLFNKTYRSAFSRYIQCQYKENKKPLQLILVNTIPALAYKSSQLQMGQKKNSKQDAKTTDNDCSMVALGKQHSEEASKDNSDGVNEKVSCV
T4 sequence (Q9QYN8 whole entry): as the sequence (P58406 whole entry) above, with A15T, T286A, G290A, H387R, V389I counted along it
Chain of sigma-2 (Q5BJF2 whole entry): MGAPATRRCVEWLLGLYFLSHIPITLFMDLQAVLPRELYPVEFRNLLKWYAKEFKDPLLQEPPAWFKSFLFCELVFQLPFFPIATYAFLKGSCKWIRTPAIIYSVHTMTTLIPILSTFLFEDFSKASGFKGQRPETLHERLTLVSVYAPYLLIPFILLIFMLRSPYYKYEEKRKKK

Compound | pIC50 [1] | pKi [1] | logD [2] | inhibition at 10 µM [3] [%] | pKi [4] | other results
[11CH3]NC(=O)c1ccc([C@H]2C[C@@H]2C(=O)N2CCN(C3CCC3)CC2)cc1 [AZD13153556, reference compound] | 7.63 |  |  |  |  | 
O=C([C@H]1C[C@@H]1c1ccc(F)cc1)N1CCN(C2CCC2)CC1 [Compound 2, (4-Cyclobutylpiperazin-1-yl)((1S,2S)-2-(4-fluorophenyl)cyclopropyl)methanone] |  |  | 2.76 | 98.1 | 8.79 | 
O=C([C@H]1C[C@@H]1c1ccc(F)cc1)N1CCN(C2CCCC2)CC1 [Compound 3, (4-Cyclopentylpiperazin-1-yl)((1S,2S)-2-(4-fluorophenyl)cyclopropyl)methanone] |  |  | 2.82 | 93.2 | 6.70 | inhibition at 10 µM [5]: 64.5%; CNS target selectivity [6]: over 300 fold; selectivity of H3R over sigma-1 [4]: 69 fold; pKi [7]: < 6.00
O=C([C@H]1C[C@@H]1c1ccc(F)cc1)N1CCN(C2CCCCC2)CC1 [Compound 4, (4-Cyclohexylpiperazin-1-yl)((1S,2S)-2-(4-fluorophenyl)cyclopropyl)methanone] |  |  | 3.35 | 94.4 | 5.89 | inhibition at 10 µM [8]: 93.6%; inhibition at 10 µM [5]: 59%; inhibition at 10 µM [9]: 80.3%; CNS target selectivity [6]: over 300 fold; selectivity of H3R over sigma-1 [4]: 407 fold; pKi [7]: < 6.00
O=C([C@H]1C[C@@H]1c1ccc(F)cc1)N1CCN(C2CCCCCC2)CC1 [Compound 5, (4-Cycloheptylpiperazin-1-yl)((1S,2S)-2-(4-fluorophenyl)cyclopropyl)methanone] | < 6.00 | < 6.00 |  |  |  | 
O=C([C@H]1C[C@@H]1c1ccc([18F])cc1)N1CCN(C2CCCCC2)CC1 [[^18F]4] |  |  | 3.35 |  |  | reduction in radioactivity across brain regions, GSK189254 blocking ([10]; GSK189254 10 μM): 38.7–68.2%; signal reduction, self-blocking with unlabeled compound ([10]; unlabeled 3 or 4 at 10 μM): 66.6–78.8%; whole-brain signal reduction based on AUC, GSK189254 blocking ([11]; GSK189254 3 mg/kg, 0–60 min): did not yield a significant reduction; time of peak whole-brain uptake ([11]; baseline, CD1 mice): 4.3 min; whole-brain uptake at 60 min ([11]; baseline, CD1 mice): 1.77 SUV; peak whole-brain uptake ([11]; baseline, intravenous injection, CD1 mice): 1.83 SUV; reduction in whole-brain uptake from peak after 60 min dynamic scan ([11]; baseline, washout): 3.3%
O=C([C@H]1C[C@@H]1c1ccc(-c2ccc([18F])nc2)cc1)N1CCN(C2CCC2)CC1 [[^18F]H3-2404, reference compound] |  | 7.99 |  |  |  | 

Continued, in another order:

pIC50 [1] | pKi [1] | Compound | logD [2] | inhibition at 10 µM [3] [%] | pKi [4] | other results
< 6.00 | < 6.00 | O=C([C@H]1C[C@@H]1c1ccc(F)cc1)N1CC2(C1)CN(C1CCC1)C2 [Compound 6, (6-Cyclobutyl-2,6-diazaspiro[3.3]heptan-2-yl)((1S,2S)-2-(4-fluorophenyl)cyclopropyl)methanone] |  |  |  | 
< 6.00 | < 6.00 | O=C([C@H]1C[C@@H]1c1ccc(F)cc1)N1C[C@@H]2C[C@H]1CN2C1CCC1 [Compound 7, ((1S,4S)-5-Cyclobutyl-2,5-diazabicyclo[2.2.1]heptan-2-yl)((1S,2S)-2-(4-fluorophenyl)cyclopropyl)methanone] |  |  |  | 
< 6.00 | < 6.00 | O=C([C@H]1C[C@@H]1c1ccc(F)cc1)N1C[C@@H]2CN(C3CCC3)C[C@@H]2C1 [Compound 8, ((3aR,6aS)-5-Cyclobutylhexahydropyrrolo[3,4-c]pyrrol-2(1H)-yl)((1S,2S)-2-(4-fluorophenyl)cyclopropyl)methanone] |  |  |  | 
